According to patent publication US5654469A, “Acetylenes disubstituted with a 5 substituted tetrahydronaphthyl group and with an aryl or heteroaryl groups having retinoid-like biological activity” (Allergan, priority 1996, dated 1997):

These compounds were tested on ornithine decarboxylase (ODC) (assay: ODC assay: inhibition of TPA induction of ornithine decarboxylase (retinoid-like activity)). Conditions: concentration of the test compound which causes 80% inhibition in the ODC assay (TPA-induced ODC).
Format: biochemical
From the text: The retinoic acid-like activity of these compounds is confirmed through the classic measure of retinoic acid activity involving the effects of retinoic acid on ornithine decarboxylase. The original work on the correlation between retinoic acid and decrease in cell proliferation was done by Verma & Boutwell, Cancer Research, 1977, 37,2196-2201. That reference discloses that ornithine decarboxylase (ODC) activity increased precedent to polyamine biosynthesis. It has been established elsewhere that increases in polyamine synthesis can be correlated or associated with cellular proliferation. Thus, if ODC activity could be inhibited, cell hyperproliferation could be modulated. Although all cases for ODC activity increases are unknown, it is known that 12-0-tetradecanoylphorbol-13-acetate (TPA) induces ODC activity. Retinoic acid inhibits this induction of ODC activity by TPA. […] Activity of exemplary compounds of the present invention in the above-described ODC assay is disclosed in Table 2 which provides the IC80 concentration for the respective exemplary compound. ("IC80 " is that concentration of the test compound which causes 80% inhibition in the ODC assay. By analogy, "IC60, for example, is that concentration of the test compound which causes 60% inhibition in the ODC assay.)

IC80 conc [nmols]	SMILES
3.18	CCOC(=O)c1ccc(C#Cc2ccc3c(c2)C(O)CCC3(C)C)cc1 (stereo not drawn) [Compound 10, Ethyl 4-[(5,6,7,8-tetrahydro-5-hydroxy-8,8-dimethylnaphth-3-yl)ethynyl]benzoate]
0.35	CCOC(=O)c1ccc(C#Cc2ccc3c(c2)[C@H](O[C@@H]2CCCCO2)CCC3(C)C)nc1 (relative stereo) [Compound 17, Ethyl 6-[[5,6,7,8-tetrahydro-5(RS)-(2'(RS)-tetrahydropyranyloxy)-8,8-dimethylnaphth-3-yl]ethynyl]nicotinate]
2.80	CCOC(=O)c1ccc(C#Cc2ccc3c(c2)C(C)(C)CC[C@@H]3O[C@H]2CCCCO2)cc1 (relative stereo) [Compound 14]
0.60	CCOC(=O)c1ccc(C#Cc2ccc3c(c2)[C@H](O[C@H]2CCCCO2)CCC3(C)C)cc1 (relative stereo) [Compound 16, Ethyl 4-[[5,6,7,8-tetrahydro-5(RS)-(2'(SR)-tetrahydropyranyloxy)-8,8-dimethylnaphth-3-yl]ethynyl]benzoate]
4.20	CC1(C)CC[C@H](O[C@@H]2CCCCO2)c2ccc(C#Cc3ccc(C(=O)O)cc3)cc21 (relative stereo) [Compound 32, 4-[[5,6,7,8-tetrahydro-5(SR)-(2'(RS)-tetrahydropyranyloxy)-8,8-dimethylnaphth-2-yl]ethynyl]benzoic acid]
1.33	CCOC(=O)CC1(O)CCC(C)(C)c2cc(C#Cc3ccc(C(=O)OCC)cc3)ccc21 (stereo not drawn) [Compound 113, Ethyl 4-[(5,6,7,8-tetrahydro-5-hydroxy-8,8-dimethyl-5-carboethoxymethylnaphth-2-yl)ethynyl]benzoate]
1.0	CCOC(=O)CC1(O)CCC(C)(C)c2ccc(C#Cc3ccc(C(=O)OCC)cc3)cc21 (stereo not drawn) [Compound 119, Ethyl 4-[(5-hydroxy-8,8-dimethyl-5-carhoethoxymethyl-5,6,7,8-tetrahydronapth-3-yl)ethynyl]benzoate]
3.83	CCOC(=O)c1ccc(C#Cc2ccc3c(c2)C(OC2CCCCC2)CCC3(C)C)cc1 (stereo not drawn) [Compound 6, Ethyl 4-[(5-cyclohexyloxy-5,6,7,8-tetrahydro-8,8-di-methyl-naphth-3-yl)ethynyl]benzoate]
0.40	CCOC(=O)c1ccc(C#Cc2ccc3c(c2)C(OCOC)CCC3(C)C)cc1 (stereo not drawn) [Compound 12]
9.30	CC1(C)CCC(O)c2cc(C#Cc3ccc(C(=O)O)cc3)ccc21 (stereo not drawn) [Compound 41, 4-[(5,6,7,8-tetrahydro-5-hydroxy-8,8-dimethylnaphth-3-yl)ethynyl]benzoic acid]
0.15	CCOC(=O)c1ccc(C#Cc2ccc3c(c2)C(C)(C)CCC3SC(C)=O)cc1 (stereo not drawn) [Compound 143, Ethyl 4-[(5,6,7,8-tetrahydro-8,8-dimethyl-5-thioacetylnaphth-2-yl)ethynyl]benzoate]
0.09	CCOC(=O)c1ccc(C#Cc2ccc3c(c2)[C@H](O[C@@H]2CCCCO2)CCC3(C)C)cc1 (relative stereo) [Compound 15, Ethyl 4-[[5,6,7,8-tetrahydro-5 (RS)-(2'(RS)-tetrahydropyranyloxy)-8,8-dimethylnaphth-3-yl]ethynyl]benzoate]
2.20	CCOC(=O)c1ccc(C#Cc2ccc3c(c2)[C@H](O[C@H]2CCCCO2)CCC3(C)C)nc1 (relative stereo) [Compound 18]
7.29	CCOC(=O)c1ccc(C#Cc2ccc3c(c2)C(C)(C)CC[C@@H]3O[C@@H]2CCCCO2)cc1 (relative stereo) [Compound 13, Ethyl 4-[[5,6,7,8-tetrahydro-5(SR)-(2'(RS)-tetrahydropyranyloxy)-8,8-dimethylnaphth-2-yl]ethynyl]benzoate]
0.81	COCOC1CCC(C)(C)c2ccc(C#Cc3ccc(C(=O)O)cc3)cc21 (stereo not drawn) [Compound 43]
0.08	CC1(C)CC[C@@H](O[C@@H]2CCCCO2)c2cc(C#Cc3ccc(C(=O)O)cc3)ccc21 (relative stereo) [Compound 33]
0.66	CC1(C)CCC(O)c2ccc(C#Cc3ccc(C(=O)O)cc3)cc21 (stereo not drawn) [Compound 42, 4-[(5,6,7,8-tetrahydro-5-hydroxy-8,8-dimethylnaphth-2-yl)ethynyl]benzoic acid]
2.30	CC1(C)CC[C@@H](O[C@H]2CCCCO2)c2cc(C#Cc3ccc(C(=O)O)cc3)ccc21 (relative stereo) [Compound 34, 4-[[5,6,7,8-tetrahydro-5(RS)-(2'(SR)-tetrahydropyranyloxy)-8,8-dimethylnaphth-3-yl]ethynyl]benzoic acid]
0.91	CCOC(=O)c1ccc(C#Cc2ccc3c(c2)C(C)(C)CCC3O)cc1 (stereo not drawn) [Compound 9, Ethyl 4-[(5,6,7,8-tetrahydro-5-hydroxy-8,8-dimethyl-naphth-2-yl)ethynyl]benzoate]
< 3	CC1(C)CC[C@H](O[C@H]2CCCCO2)c2ccc(C#Cc3ccc(C(=O)O)cc3)cc21 (relative stereo) [Compound 35]
18.70	CC1(C)CC[C@@H](O[C@@H]2CCCCO2)c2cc(C#Cc3ccc(C(=O)O)cn3)ccc21 (relative stereo) [Compound 36]

SMILES	IC80 conc [nmols]
CCOC(=O)CC1(O)CCC(C)(C)c2cc(C#Cc3ccc(C(=O)OCC[Si](C)(C)C)cc3)ccc21 (stereo not drawn) [Compound 117, Trimethylsilylethyl 4-[(5,6,7,8-tetrahydro-5-hydroxy-8,8-dimethyl-5-carboethoxymethylnaphth-2-yl)ethynyl]benzoate]	8.60
CCOC(=O)c1ccc(C#Cc2ccc3c(c2)C(C)(C)CCC3(C#N)O[Si](C)(C)C)cc1 (stereo not drawn) [Compound 107, Ethyl 4-[(5-cyano-5,6,7,8-tetrahydro-8,8-dimethyl-5-trimethylsiloxynaphth-2-yl)ethynyl]benzoate]	1.43
CCOC(=O)c1ccc(C#Cc2ccc3c(c2)C(C)(C)CCC3O[Si](C)(C)C)cc1 (stereo not drawn) [Compound 111, Ethyl 4-[(5,6,7,8-tetrahydro-8,8-dimethyl-5-trimethylsiloxynaphth-2-yl)ethynyl]benzoate]	3.40
